Source: patent US20100152434A1, “Protein Kinase-binding Nucleosides and Associated Methods” (priority 2007, published 2010)
Read-outs that look alike come from different tables or passages of the source.

Columns and labels:
HOP-62 = assay: cells; settings: Homo sapiens, HOP-62
EKVX [1] = assay: cells; settings: Homo sapiens
NCI-H23 [2] = assay: cells; settings: Homo sapiens, NCI-H23
ACHN [3] = system: ACHN
UACC-257 = assay: cells; settings: Homo sapiens, UACC-257
OVCAR-8 [4] = assay: cells; settings: Homo sapiens, OVCAR-8
HCT-116 [5] = system: HCT-116
SK-MEL-2 = assay: cells; settings: Homo sapiens, SK-MEL-2
SK-MEL-5 [6] = assay: cells; settings: Homo sapiens, SK-MEL-5
A498 [7] = system: A498
LOX IMVI = assay: cells; settings: Homo sapiens
A498 [8] = assay: cells; settings: Homo sapiens, A498
SK-MEL-5 [9] = system: SK-MEL-5
NCI-H322M = assay: cells; settings: Homo sapiens
UO-31 = assay: cells; settings: Homo sapiens, UO-31
EKVX [10] = system: EKVX
OVCAR-5 = assay: cells; settings: Homo sapiens, OVCAR-5
MALME-3M = assay: cells; settings: Homo sapiens
HCT-116 [11] = assay: cells; settings: Homo sapiens, HCT-116
ACHN [12] = assay: cells; settings: Homo sapiens
T-47D = assay: cells; settings: Homo sapiens, T47D
NCI-H23 [13] = system: NCI-H23
OVCAR-8 [14] = system: OVCAR-8
[15] = Log10 Concentration −4.0, Molar
[16] = Log10 Concentration −5.0, Molar
[17] = Log10 Concentration −6.0, Molar
[18] = Log10 Concentration −7.0, Molar
[19] = Log10 Concentration −8.0, Molar

Work on `CNC(=O)NC[C@H]1O[C@@H](n2cnc3c(NC(=O)Nc4ccccc4)ncnc32)C(O[Si](C)(C)C(C)(C)C)[C@H]1O[Si](C)(C)C(C)(C)C` (some centres unmarked) [Compound 25, 2′,3′-Bis-O-(tert-butyldimethylsilyl)-5-deoxy-5′-[(N-methylcarbamoyl)amino]-N^6-(N-phenylcarbamoyl)adenosine] yielded a GI50 (HOP-62) of 49.8 µM, an IC50 (HOP-62) of 49 µM and a GI50 (EKVX [1]) of 3.7 µM. For the same compound, the IC50 (EKVX [1]) was > 100 µM, the GI50 (NCI-H23 [2]) was 3.17 µM and the IC50 (NCI-H23 [2]) was 85 µM. The TGI (ACHN [3]) was >1.00E−4 Molar, the “Percent Growth” value (ACHN [3]; [15]) was 2% and the “Percent Growth” value (ACHN [3]; [16]) was 10%. For the same compound, the “Percent Growth” value (ACHN [3]; [17]) was 105%, the “Percent Growth” value (ACHN [3]; [18]) was 108% and the “Percent Growth” value (ACHN [3]; [19]) was 107%. For the same compound, the TGI (OVCAR-4) was 4.39E−5 Molar, the “Percent Growth” value (OVCAR-4; [15]) was −4% and the “Percent Growth” value (OVCAR-4; [16]) was 7%. The “Percent Growth” value (OVCAR-4; [17]) was 100%, the “Percent Growth” value (OVCAR-4; [18]) was 106% and the “Percent Growth” value (OVCAR-4; [19]) was 106%. For the same compound, the GI50 (UACC-257) was 3.78 µM, the IC50 (UACC-257) was > 100 µM and the GI50 (OVCAR-8 [4]) was 4.01 µM. For the same compound, the IC50 (OVCAR-8 [4]) was > 100 µM, the TGI (M14) was 1.85E−5 Molar and the “Percent Growth” value (M14; [15]) was −52%. For the same compound, the “Percent Growth” value (M14; [16]) was 19%, the “Percent Growth” value (M14; [17]) was 105% and the “Percent Growth” value (M14; [18]) was 107%. The “Percent Growth” value (M14; [19]) was 101%, the TGI (HCT-116 [5]) was 4.31E−6 Molar and the “Percent Growth” value (HCT-116 [5]; [15]) was −100%. The “Percent Growth” value (HCT-116 [5]; [16]) was −59%, the “Percent Growth” value (HCT-116 [5]; [17]) was 102% and the “Percent Growth” value (HCT-116 [5]; [18]) was 105%. The “Percent Growth” value (HCT-116 [5]; [19]) was 107%, the GI50 (SK-MEL-2) was 2.45 µM and the IC50 (SK-MEL-2) was 28.3 µM. The GI50 (SK-MEL-5 [6]) was 1.98 µM, the IC50 (SK-MEL-5 [6]) was 13.6 µM and the TGI (A498 [7]) was 4.06E−6 Molar. The “Percent Growth” value (A498 [7]; [15]) was −75%, the “Percent Growth” value (A498 [7]; [16]) was −39% and the “Percent Growth” value (A498 [7]; [17]) was 90%. The “Percent Growth” value (A498 [7]; [18]) was 97%, the “Percent Growth” value (A498 [7]; [19]) was 92% and the GI50 (LOX IMVI) was 1.82 µM. The IC50 (LOX IMVI) was 62.1 µM, the TGI (SN12C) was 3.38E−6 Molar and the “Percent Growth” value (SN12C; [15]) was −90%. For the same compound, the “Percent Growth” value (SN12C; [16]) was −87%, the “Percent Growth” value (SN12C; [17]) was 98% and the “Percent Growth” value (SN12C; [18]) was 100%. For the same compound, the “Percent Growth” value (SN12C; [19]) was 100%, the GI50 (A498 [8]) was 2.03 µM and the IC50 (A498 [8]) was 1.95 µM. The TGI (SK-MEL-5 [9]) was 4.75E−6 Molar, the “Percent Growth” value (SK-MEL-5 [9]; [15]) was −99% and the “Percent Growth” value (SK-MEL-5 [9]; [16]) was −42%. For the same compound, the “Percent Growth” value (SK-MEL-5 [9]; [17]) was 82%, the “Percent Growth” value (SK-MEL-5 [9]; [18]) was 96% and the “Percent Growth” value (SK-MEL-5 [9]; [19]) was 102%. For the same compound, the TGI (SK-OV-3) was >1.00E−4 Molar, the “Percent Growth” value (SK-OV-3; [15]) was 5% and the “Percent Growth” value (SK-OV-3; [16]) was 39%. The “Percent Growth” value (SK-OV-3; [17]) was 107%, the “Percent Growth” value (SK-OV-3; [18]) was 113% and the “Percent Growth” value (SK-OV-3; [19]) was 106%. For the same compound, the GI50 (NCI-H322M) was 6.86 µM, the IC50 (NCI-H322M) was > 100 µM and the TGI (SNB-75) was 3.41E−5 Molar. For the same compound, the “Percent Growth” value (SNB-75; [15]) was −12%, the “Percent Growth” value (SNB-75; [16]) was 14% and the “Percent Growth” value (SNB-75; [17]) was 73%. The “Percent Growth” value (SNB-75; [18]) was 95%, the “Percent Growth” value (SNB-75; [19]) was 94% and the GI50 (UO-31) was 2.5 µM. For the same compound, the IC50 (UO-31) was > 100 µM, the TGI (EKVX [10]) was 3.06E−5 Molar and the “Percent Growth” value (EKVX [10]; [15]) was −9%. For the same compound, the “Percent Growth” value (EKVX [10]; [16]) was 9%, the “Percent Growth” value (EKVX [10]; [17]) was 104% and the “Percent Growth” value (EKVX [10]; [18]) was 111%. For the same compound, the “Percent Growth” value (EKVX [10]; [19]) was 106%, the GI50 (OVCAR-5) was 5.24 µM and the IC50 (OVCAR-5) was > 100 µM. The GI50 (MALME-3M) was 2.98 µM, the IC50 (MALME-3M) was > 100 µM and the GI50 (HCT-116 [11]) was 2.11 µM. For the same compound, the IC50 (HCT-116 [11]) was 8.8 µM, the GI50 (ACHN [12]) was 3.83 µM and the IC50 (ACHN [12]) was > 100 µM. The GI50 (T-47D) was 2.87 µM, the IC50 (T-47D) was > 100 µM and the TGI (NCI-H23 [13]) was 9.07E−6 Molar. For the same compound, the “Percent Growth” value (NCI-H23 [13]; [15]) was −53%, the “Percent Growth” value (NCI-H23 [13]; [16]) was −5% and the “Percent Growth” value (NCI-H23 [13]; [17]) was 105%. The “Percent Growth” value (NCI-H23 [13]; [18]) was 106%, the “Percent Growth” value (NCI-H23 [13]; [19]) was 100% and the TGI (OVCAR-8 [14]) was 4.01E−5 Molar. The “Percent Growth” value (OVCAR-8 [14]; [15]) was −9%, the “Percent Growth” value (OVCAR-8 [14]; [16]) was 13% and the “Percent Growth” value (OVCAR-8 [14]; [17]) was 106%. For the same compound, the “Percent Growth” value (OVCAR-8 [14]; [18]) was 106% and the “Percent Growth” value (OVCAR-8 [14]; [19]) was 108%.
